Results taken from patent US11957783B2, “Topical immunosensitizers to treat viral and fungal infections” (Squarex, LLC, priority 2018, dated 2024).

What was measured:
[1] = tested on: blood cells (B-Cells, T-Cells, helper/cytotoxic); assay: Blood cell counts of subjects; format: in vivo, human; conditions: for Absolute Count CD19 (B-Cells), group average / Helper/Cytotoxic Ratio, group average / Percentage CD3 (T-Cells), group average / Percentage CD19 (B-Cells), group average / T-cell to B-cell ratio, group average: n = 12
Method: (§1) After a screening visit at which blood was drawn to test for IgG antibody against HSV-1 and subjects were interviewed for inclusion/exclusion criteria, selected subjects returned for blood draws on day 1. After the blood draw on day 1, subjects in group A only were dosed with SADBE. A petrolatum donut was applied with a cotton swab to form about a 1 cm diameter donut on skin on the inner aspect of the upper arm. Then a separate cotton swab was dipped in a 2% SADBE solution (w/v) in DMSO, and the swab was then used to apply about 10-20 mg of solution over about a 1 cm diameter circle within the petrolatum donut. Immediately after application, the application site was covered with TEGADERM. Subjects were advised to remove the TEGADERM and rinse and wipe the spot three hours later. The group A subjects then returned for blood draws on days 15 and 57 and were queried about adverse events on those dates.
(§2) At this study visit where blood was drawn it was tested for blood cell counts, various cytokine levels, and anti-HSV-1 IgG quantitative levels.
Certain blood cell count parameters were measured in the study. Differences vs. group A day 1 that are statistically significant are highlighted in bold underline.

[2] = tested on: peripheral blood mononuclear cells (PBMC); assay: PBMC proliferation in vitro (tritiated thymidine incorporation), Example 1; format: cell-based, human; conditions: for PBMC Percent proliferation, normalized all three stimuli: normalized to average of group A day 57, n = 36; for PBMC Percent proliferation: n = 12; for Percent proliferation: 2 subjects with largest and smallest day 57-day 1 difference removed, n = 10
Method: as §1
PBMC were isolated using SepMate PBMC isolation tubes (Stem Cell Technologies, Vancouver, Canada) and Ficoll-Paque according to the manufacturer's instructions. PBMC were isolated and suspended in negative control medium at 2 million cells/ml. PBMC suspension (100 μL) was added to 100 μL of medium in quadruplicate in 96-well plates. The plates were prepared in advance and stored at −70° C. The wells were in five different conditions in quadruplicate with these final concentrations after addition of the 100 μL of PBMC suspension in negative control medium. • 1. Negative control in medium (RPMI with glutamine and pen/strep, supplemented with 10% human A/B serum). • 2. Medium plus 16 μg/ml protein from heat-inactivated HSV-1-infected Vero cell extracts. • 3. Medium plus heat-inactivated HSV-1 cell-free virus at a final 7.5 million pfu/ml. • 4. Medium plus Candida cell extract. (Greer item number M15A50, 20,000 pnu/ml allergenic extract mixed molds Candida albicans, was diluted 1/50 into medium). • 5. Positive control, medium plus 10 μg/ml concanavalin A.
A second plate was incubated for 4 days. On the 4th day 1 μCi of tritiated thymidine in 50 μl of fresh negative control medium was added to each well. After 22 hours incubation the cells were harvested onto a filter mat and each well counted by scintillation counting for tritium incorporation into DNA as a quantitative measure of cell division.
The relative proliferation for each test condition was calculated as (avg. CPM test condition−avg. CPM negative control)/(avg. CPM positive control−avg. CPM negative control). The average CPM is the average tritium counts per minute of the 4 wells in a given test condition for a given collection point of a given patient. To calculate the normalized proliferation to all three stimuli, each data point was converted to a percentage proliferation relative to the average proliferation to that stimulus in group C or group A day 57, whichever was being compared to.
Immediately after the blood collection on day 1, the group A subjects (frequent cold sore sufferers) were treated with one dose of topical 2% SADBE in DMSO applied to the inner aspect of the subject's arm. They returned for blood collection on day 15 and day 57, two and 8 weeks after the single dose of drug. The relative proliferation of PBMC from the group A subjects collected on days 1, 15, and 57, in response to the stimuli, is shown in Table 4.

[3] = Adverse events after single topical SADBE dose, Phase 1 study (Example 1); format: in vivo, human
Method: as §1
Of the 12 subjects treated, two experienced stinging at the application site, and one had nausea that was ruled possibly related to the study drug.

[4] = tested on: anti-HSV-1 IgG; assay: Serum anti-HSV-1 IgG quantitative levels; format: in vivo, human; conditions: for Level of anti-HSV1 IgG, group average: n = 12
Method: as §1, §2
Anti-HSV-1 IgG was quantified in serum collected at each study visit.

[5] = tested on: Interleukin 2; assay: Plasma level of Interleukin 2; format: in vivo, human; conditions: for Interleukin 2 in plasma, group average / Interleukin 2 in plasma, number of subjects with undetectable levels: n = 12
Method: as §1, §2
All subjects had detectable IL-2 and the large majority had detectable IL-2 receptor.

## CCCCOc1c(OCCCC)c(=O)c1=O [SADBE, 3,4-Dibutoxy-3-cyclobutene-1,2-dione]
[1]; A15 / group A day 1
  Absolute Count CD19 (B-Cells), Sample/A1: 0.88
  Helper/Cytotoxic Ratio, Sample/A1: 0.68
  Percentage CD3 (T-Cells), Sample/A1: 1.02
  Percentage CD19 (B-Cells), Sample/A1: 0.83
  T-cell to B-cell ratio, Sample/A1: 1.35
[1]; A15 minus group A day 1
  Absolute Count CD19 (B-Cells), Sample minus A1: −22.63 cells/mm^3
  Helper/Cytotoxic Ratio, Sample minus A1: −1.67
  Percentage CD3 (T-Cells), Sample minus A1: 1.42%
  Percentage CD19 (B-Cells), Sample minus A1: −2.08%
  T-cell to B-cell ratio, Sample minus A1: 2.41
[1]; A57 / group A day 1
  Absolute Count CD19 (B-Cells), Sample/A1: 0.99
  Helper/Cytotoxic Ratio, Sample/A1: 0.83
  Percentage CD3 (T-Cells), Sample/A1: 1.03
  Percentage CD19 (B-Cells), Sample/A1: 0.95
  T-cell to B-cell ratio, Sample/A1: 1.01
[1]; A57 minus group A day 1
  Absolute Count CD19 (B-Cells), Sample minus A1: −1.85 cells/mm^3
  Helper/Cytotoxic Ratio, Sample minus A1: −0.90
  Percentage CD3 (T-Cells), Sample minus A1: 2.58%
  Percentage CD19 (B-Cells), Sample minus A1: −0.58%
  T-cell to B-cell ratio, Sample minus A1: 0.69
[1]; group A day 15 (A15)
  Absolute Count CD19 (B-Cells), group average: 171.74 cells/mm^3
  Helper/Cytotoxic Ratio, group average: 3.58
  Percentage CD3 (T-Cells), group average: 77.50%
  Percentage CD19 (B-Cells), group average: 10.17%
  T-cell to B-cell ratio, group average: 9.22
[1]; group A day 57 (A57)
  Absolute Count CD19 (B-Cells), group average: 192.52 cells/mm^3
  Helper/Cytotoxic Ratio, group average: 4.35
  Percentage CD3 (T-Cells), group average: 78.67%
  Percentage CD19 (B-Cells), group average: 11.67%
  T-cell to B-cell ratio, group average: 7.50
[2]; group A Day 15
  PBMC Percent proliferation, normalized all three stimuli: 71.65%
[2]; group A Day 57, largest and smallest difference data points removed, n = 30
  Percent proliferation, normalized all three stimuli: 99.97%
[2]; group A Day 57
  PBMC Percent proliferation, normalized all three stimuli: 99.97%
[2]; stimulus Candida extract, group A Day 15 after one SADBE treatment
  PBMC Percent proliferation: 3.33%
[2]; stimulus Candida extract, group A Day 57
  Percent proliferation: 3.19%
[2]; stimulus Candida extract, group A Day 57 after one SADBE treatment
  PBMC Percent proliferation: 7.35%
[2]; stimulus HSV-1-infected cell extracts, group A Day 15 after one SADBE treatment
  PBMC Percent proliferation: 15.43%
[2]; stimulus HSV-1-infected cell extracts, group A Day 57
  Percent proliferation: 15.78%
[2]; stimulus HSV-1-infected cell extracts, group A Day 57 after one SADBE treatment
  PBMC Percent proliferation: 16.96%
[2]; stimulus HSV-1 virus, group A Day 15 after one SADBE treatment
  PBMC Percent proliferation: 10.52%
[2]; stimulus HSV-1 virus, group A Day 57
  Percent proliferation: 12.88%
[2]; stimulus HSV-1 virus, group A Day 57 after one SADBE treatment
  PBMC Percent proliferation: 13.37%
[3]; 12 subjects treated
  rashes or delayed-type hypersensitivity reactions: No rashes or delayed-type hypersensitivity reactions were reported
[3]; 12 subjects, single topical 2% SADBE in DMSO on arm
  tolerability of study drug: well tolerated
[3]; of the 12 subjects treated
  subjects who experienced stinging at the application site: two
  subjects with nausea ruled possibly related to the study drug: one
[4]; A15 / group A day 1
  Level of anti-HSV1 IgG, Sample/A1: 1.13
[4]; A15 minus group A day 1
  Level of anti-HSV1 IgG, Sample minus A1: 1.08 IV
[4]; A57 / group A day 1
  Level of anti-HSV1 IgG, Sample/A1: 0.91
[4]; A57 minus group A day 1
  Level of anti-HSV1 IgG, Sample minus A1: −0.73 IV
[4]; serum, after one SADBE dose, P<0.01
  change in anti-HSV1 IgG from day 15 to day 57 in group A: highly significant decrease
[4]; serum, group A day 15 (A15)
  Level of anti-HSV1 IgG, group average: 9.39 IV
[4]; serum, group A day 57 (A57)
  Level of anti-HSV1 IgG, group average: 7.58 IV
[5]; A15 / group A day 1
  Interleukin 2 in plasma, Sample/A1: 0.96
[5]; A15 minus group A day 1
  Interleukin 2 in plasma, Sample minus A1: -0.54 pg/mL
[5]; A57 / group A day 1
  Interleukin 2 in plasma, Sample/A1: 0.84
[5]; A57 minus group A day 1
  Interleukin 2 in plasma, Sample minus A1: -2.13 pg/mL
[5]; group A day 15 (A15)
  Interleukin 2 in plasma, group average: 12.90 pg/mL
  Interleukin 2 in plasma, number of subjects with undetectable levels: 0
[5]; group A day 57 (A57)
  Interleukin 2 in plasma, group average: 11.30 pg/mL
  Interleukin 2 in plasma, number of subjects with undetectable levels: 0
